Our source for the IC50 and Ki values is US8193191B2, “Urotensin II receptor antagonists” (Janssen Pharmaceutica N.V., priority 2006, dated 2012).

Assay [1] addresses T1, rat GPR14 (U-II receptor) (Rattus norvegicus, UniProt P49684).
T1 construct: expressed in transfected cells
T1 sequence (P49684 1-386): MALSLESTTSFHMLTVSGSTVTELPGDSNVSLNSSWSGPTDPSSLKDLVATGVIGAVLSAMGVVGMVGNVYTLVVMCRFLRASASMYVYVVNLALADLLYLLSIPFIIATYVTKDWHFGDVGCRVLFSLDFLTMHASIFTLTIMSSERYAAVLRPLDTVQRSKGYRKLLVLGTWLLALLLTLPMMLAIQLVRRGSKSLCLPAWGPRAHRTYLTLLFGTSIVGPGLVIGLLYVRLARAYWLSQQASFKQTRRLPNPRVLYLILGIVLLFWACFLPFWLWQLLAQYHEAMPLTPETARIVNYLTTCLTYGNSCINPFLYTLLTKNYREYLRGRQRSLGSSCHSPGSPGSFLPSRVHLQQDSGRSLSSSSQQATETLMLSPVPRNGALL
Put plainly: Rat UII Calcium Mobilization FLIPR Assay. The format is cell-based. As to conditions: average value for the compound tested; read-out: Rat UII FLIPR Average IC50. The gist of the method: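 Fluorescent calcium signals were recorded at room temperature (23° C) by FLIPR. Stable rat U-II receptor CHO lines had been dye-loaded for 1 h at 37° C in pH 7.4 HBSS containing 20 mM HEPES, 0.1% BSA and 2.5 mM probenecid.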
(A change in cytosolic calcium serves as a functional read-out for many receptors and channels.)

For assay [2], the target named is T2, Human UII receptor, 6D9 human rhabdomyosarcoma cells (Homo sapiens, UniProt Q9UKP6).
T2 construct: 6D9: isolated by dilution subcloning of RMS13 cells, ATCC® Number: CRL-2061; host or cells: 6D9 human rhabdomyosarcoma cells (subclone of RMS13)
T2 sequence (Q9UKP6 1-389): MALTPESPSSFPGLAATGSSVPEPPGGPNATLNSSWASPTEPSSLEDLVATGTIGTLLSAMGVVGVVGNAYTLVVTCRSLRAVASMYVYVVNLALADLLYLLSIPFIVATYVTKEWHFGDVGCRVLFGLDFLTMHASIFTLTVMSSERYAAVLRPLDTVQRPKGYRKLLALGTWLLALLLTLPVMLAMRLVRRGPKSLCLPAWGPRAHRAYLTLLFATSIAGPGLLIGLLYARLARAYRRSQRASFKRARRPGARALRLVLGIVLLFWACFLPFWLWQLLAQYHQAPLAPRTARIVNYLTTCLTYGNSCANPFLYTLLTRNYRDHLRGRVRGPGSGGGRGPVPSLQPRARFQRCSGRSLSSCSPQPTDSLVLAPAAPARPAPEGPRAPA
Put plainly: Human UII Calcium Mobilization Assay. The format is cell-based. The settings on record: average value, FLIPR TETRA, read-out: Human UII Ca^+ Mobilization Average IC50. The gist of the method:
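FLIPR calcium responses were recorded for 4 minutes after room-temperature addition of test antagonist and U-II, in dye-loaded human 6D9 cells (37° C, 45 min; HBSS/HEPES with probenecid 1.25 mM). Compounds serially diluted in HBSS/HEPES, up to 0.1% DMSO; curves gave IC50 and EC50.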

For assay [3], the target named is T3, endogenous human UII receptor (Homo sapiens, UniProt Q9UKP6).
T3 sequence (Q9UKP6 1-389): T2 sequence (Q9UKP6 1-389)
Put plainly: Human Radioligand Binding Assay ((^125I)-U-II binding to human skeletal muscle myoblasts).

Setting [4] is: read-out: Human UII Average Binding Ki, average value, (^125I)-U-II binding to human skeletal muscle myoblasts (HSMM), 25° C., 3 h.

Like-named read-outs stand apart in the source and are kept apart here. Bounds are passed on as bounds.

By IC50 is commonly meant the concentration that gives 50% inhibition. As usually defined, the Ki is the equilibrium dissociation constant of an inhibitor or competing ligand from its target. `COc1ccc([C@@H](CCCNC(=O)[C@@H]2CCCN2C)N2C(=O)c3cccc(N4CCN([C@H](C)c5ccccc5)CC4)c3C2=O)cc1OC` [Cpd 191, (S)-1-methyl-pyrrolidine-2-carboxylic acid (R)-(4-(3,4-dimethoxy-phenyl)-4-{1,3-dioxo-4-[4-(1R)-(1-phenyl-ethyl)-piperazin-1-yl]-1,3-dihydro-isoindol-2-yl}-butyl)-amide]: the results for the concentration for half-maximal inhibition (IC50) in assay [1] and in assay [2] were 31 nM and 1500 nM, respectively. The Ki in assay [3] was found to be 69 nM.

In the case of `COc1ccc([C@@H](CCCNS(=O)(=O)c2cccs2)N2C(=O)c3cccc(N4CCN(C5CCC5)CC4)c3C2=O)cc1OC` [Cpd 192, (R)-thiophene-2-sulfonic acid [4-[4-(4-cyclobutyl-piperazin-1-yl)-1,3-dioxo-1,3-dihydro-isoindol-2-yl]-4-(3,4-dimethoxy-phenyl)-butyl]-amide], the concentration for half-maximal inhibition (IC50) was 7 nM in assay [1] and 640 nM in assay [2]. The same molecule yielded an inhibition constant (Ki) in assay [3] of 30 nM.

Take `COc1ccc([C@@H](CCCNS(=O)(=O)c2cccs2)N2C(=O)c3cccc(N4CCN(C5CCCC5)CC4)c3C2=O)cc1OC` [Cpd 193, (R)-thiophene-2-sulfonic acid [4-[4-(4-cyclopentyl-piperazin-1-yl)-1,3-dioxo-1,3-dihydro-isoindol-2-yl]-4-(3,4-dimethoxy-phenyl)-butyl]-amide]: the IC50 in assay [1] is 7.9 nM; in assay [2], 520 nM. Besides, the affinity in assay [3] corresponds to a Ki of 86 nM.

For the molecule `C=CCN1CCN(c2cccc3c2C(=O)N([C@H](CCCNS(=O)(=O)c2cccs2)c2ccc(OC)c(OC)c2)C3=O)CC1` [Cpd 194, (R)-thiophene-2-sulfonic acid [4-[4-(4-allyl-piperazin-1-yl)-1,3-dioxo-1,3-dihydro-isoindol-2-yl]-4-(3,4-dimethoxy-phenyl)-butyl]-amide], the half-maximal inhibitory concentration (IC50) in assay [1] was 10 nM; in assay [2], 990 nM. For the same molecule, the inhibitory constant (Ki) in assay [3] turned out to be 170 nM.

As to `COc1ccc([C@@H](CCCNS(=O)(=O)c2cccs2)N2C(=O)c3cccc(N4CCN(C5CCCCC5)CC4)c3C2=O)cc1OC` [Cpd 196, (R)-thiophene-2-sulfonic acid [4-[4-(4-cyclohexyl-piperazin-1-yl)-1,3-dioxo-1,3-dihydro-isoindol-2-yl]-4-(3,4-dimethoxy-phenyl)-butyl]-amide], the 50% inhibitory concentration (IC50) is 22 nM in assay [1] and 1200 nM in assay [2]. Further, in assay [3], the affinity, expressed as Ki, was 380 nM.

For the molecule `CCN1CCN(c2cccc3c2C(=O)N([C@H](CCCNC(=O)OC(C)(C)C)c2ccc(OC)c(OC)c2)C3=O)CC1` [Cpd 197, (R)-{4-(3,4-dimethoxy-phenyl)-4-[4-(4-ethyl-piperazin-1-yl)-1,3-dioxo-1,3-dihydro-isoindol-2-yl]-butyl}-carbamic acid tert-butyl ester], the half-maximal inhibitory concentration (IC50) in assay [1] was 82 nM; in assay [2], 540 nM. The affinity in assay [3], expressed as Ki, was 220 nM.

Consider `COc1ccc([C@@H](CCCNS(=O)(=O)c2cccs2)N2C(=O)c3cccc(N4CCN(C(C)C)CC4)c3C2=O)cc1OC` [Cpd 198, (R)-thiophene-2-sulfonic acid {4-(3,4-dimethoxy-phenyl)-4-[4-(4-isopropyl-piperazin-1-yl)-1,3-dioxo-1,3-dihydro-isoindol-2-yl]-butyl}-amide], for which the values for the IC50 in assay [1] and in assay [2] were 3.5 nM and 150 nM, respectively. Moreover, the Ki in assay [3] (setting [4]) stood at 45 nM.

Turning to `COc1ccc([C@@H](CCCNC(=O)C(C#N)C(C)=O)N2C(=O)c3cccc(N4CCN([C@H](C)c5ccccc5)CC4)c3C2=O)cc1OC` (stereo partly drawn) [Cpd 199, (R)-2-cyano-N-(4-(3,4-dimethoxy-phenyl)-4-{1,3-dioxo-4-[4-(1R)-(1-phenyl-ethyl)-piperazin-1-yl]-1,3-dihydro-isoindol-2-yl}-butyl)-3-oxo-butyramide], the IC50 in assay [1] is 9.3 nM; in assay [2], 160 nM. In assay [3], this molecule registered a Ki of 27 nM.

Turning to `CCN1CCN(c2cccc3c2C(=O)N([C@H](CCCOCc2ccccc2)c2ccc(OC)c(OC)c2)C3=O)CC1` [Cpd 201, (R)-2-[4-benzyloxy-1-(3,4-dimethoxy-phenyl)-butyl]-4-(4-ethyl-piperazin-1-yl)-isoindole-1,3-dione], the IC50 is 49 nM in assay [1] and greater than 3000 nM in assay [2]. The inhibitory constant (Ki) in assay [3] came out at 210 nM.

In the case of `CCN1CCN(c2cccc3c2C(=O)N([C@H](CCCNC(=O)C2CCC2)c2ccc(OC)c(OC)c2)C3=O)CC1` [Cpd 202, (R)-cyclobutanecarboxylic acid {4-(3,4-dimethoxy-phenyl)-4-[4-(4-ethyl-piperazin-1-yl)-1,3-dioxo-1,3-dihydro-isoindol-2-yl]-butyl}-amide], the values for the concentration for half-maximal inhibition (IC50) in assay [1] and in assay [2] were 120 nM and 960 nM, respectively. The molecule also displayed an inhibition constant Ki in assay [3] of 150 nM.

Regarding `CCN1CCN(c2cccc3c2C(=O)N([C@H](CCCNS(=O)(=O)c2cn(C)c(C)n2)c2ccc(OC)c(OC)c2)C3=O)CC1` [Cpd 203, (R)-1,2-dimethyl-1H-imidazole-4-sulfonic acid {4-(3,4-dimethoxy-phenyl)-4-[4-(4-ethyl-piperazin-1-yl)-1,3-dioxo-1,3-dihydro-isoindol-2-yl]-butyl}-amide], the IC50 in assay [1] came out at 140 nM; in assay [2], 810 nM. Further, in assay [3] (setting [4]), the inhibition constant (Ki) turned out to be 97 nM.

On to `CCN1CCN(c2cccc3c2C(=O)N([C@H](CCCO)c2ccc(OC)c(OC)c2)C3=O)CC1` [Cpd 206, (R)-2-[1-(3,4-dimethoxy-phenyl)-4-hydroxy-butyl]-4-(4-ethyl-piperazin-1-yl)-isoindole-1,3-dione], for which the IC50 was 690 nM in assay [1] and 680 nM in assay [2]. Moreover, the affinity in assay [3], expressed as Ki, was 66 nM.

For `CCOCCC[C@H](c1ccc(OC)c(OC)c1)N1C(=O)c2cccc(N3CCN(CC)CC3)c2C1=O` [Cpd 207, (R)-2-[1-(3,4-dimethoxy-phenyl)-4-ethoxy-butyl]-4-(4-ethyl-piperazin-1-yl)-isoindole-1,3-dione], the results for the IC50 in assay [1] and in assay [2] were 200 nM and 1400 nM, respectively. The inhibition constant (Ki) in assay [3] is greater than 300 nM.

For `CCN1CCN(c2cccc3c2C(=O)N([C@H](CCCOCC(C)C)c2ccc(OC)c(OC)c2)C3=O)CC1` [Cpd 210, (R)-2-[1-(3,4-dimethoxy-phenyl)-4-isobutoxy-butyl]-4-(4-ethyl-piperazin-1-yl)-isoindole-1,3-dione], the values for the IC50 in assay [1] and in assay [2] were 6200 nM and greater than 10000 nM, respectively. Also, in assay [3], the inhibitory constant (Ki) was greater than 300 nM.

In the case of `COc1ccc([C@@H](CCNC(=O)c2csc(C)n2)N2C(=O)c3cccc(N4CCN([C@H](C)c5ccccc5)CC4)c3C2=O)cc1OC` [Cpd 211, (R)-2-methyl-thiazole-4-carboxylic acid (3-(3,4-dimethoxy-phenyl)-3-{1,3-dioxo-4-[4-(1R)-(1-phenyl-ethyl)-piperazin-1-yl]-1,3-dihydro-isoindol-2-yl}-propyl)-amide], the IC50 in assay [1] is 19 nM; in assay [2] it was 1200 nM. In assay [3], this molecule registered an inhibition constant (Ki) of 89 nM.

Regarding `COc1ccc([C@@H](CCCNC(=O)C(F)(F)F)N2C(=O)c3cccc(N4CCN([C@H](C)c5ccccc5)CC4)c3C2=O)cc1OC` [Cpd 212, (R)-N-(4-(3,4-dimethoxy-phenyl)-4-{1,3-dioxo-4-[4-(1R)-(1-phenyl-ethyl)-piperazin-1-yl]-1,3-dihydro-isoindol-2-yl}-butyl)-2,2,2-trifluoro-acetamide], the IC50 in assay [1] amounted to 19 nM; in assay [2], 790 nM. The molecule further yielded a Ki in assay [3] of 26 nM.

For `COc1ccc([C@@H](CCCNC(=O)COC(C)(C)C)N2C(=O)c3cccc(N4CCN([C@H](C)c5ccccc5)CC4)c3C2=O)cc1OC` [Cpd 213, (R)-2-tert-butoxy-N-(4-(3,4-dimethoxy-phenyl)-4-{1,3-dioxo-4-[4-(1R)-(1-phenyl-ethyl)-piperazin-1-yl]-1,3-dihydro-isoindol-2-yl}-butyl)-acetamide], the values for the half-maximal inhibitory concentration (IC50) in assay [1] and in assay [2] were 17 nM and 730 nM, respectively. This molecule yielded an inhibitory constant (Ki) in assay [3] of 54 nM.

For `CCN1CCN(c2cccc3c2C(=O)N([C@H](CCCOCc2cccs2)c2ccc(OC)c(OC)c2)C3=O)CC1` [Cpd 214, (R)-2-[1-(3,4-dimethoxy-phenyl)-4-(thiophen-2-ylmethoxy)-butyl]-4-(4-ethyl-piperazin-1-yl)-isoindole-1,3-dione], the concentration for half-maximal inhibition (IC50) in assay [1] was 9500 nM; in assay [2] it was greater than 10000 nM. The inhibitory constant (Ki) in assay [3] is greater than 300 nM.
